Data from ChEMBL document CHEMBL4513161, “CO-ADD screening of MMV (CH) - Pandemic Response Box” (2021).

Assays:
HEK293 = test: cells; format: functional, Homo sapiens, ATCC CRL1573; settings: Homo sapiens, ATCC CRL1573, HEK293; ASSAY_TEST Inhibition of Cell Viability; detection method Resazurin; Fluorescence (ex560/em590); MEDIA DMEM with 10% FBS; plate type 384well; TC; CORNING #3712; time 18 hr; read-out: CC50
Pseudomonas aeruginosa [1] = test: Antibacterial activity against Pseudomonas aeruginosa PAO397 [PAO1 d(mexAB-oprM) d(mexCD-oprJ) d(mexEF-oprN) d(mexJKL) d(mexXY) d(opmH)] (CO-ADD:GN_211); MIC in CAMBH media using NBS plates, by OD(600); format: functional; settings: ASSAY_TEST Inhibition of Bacterial Growth, detection method Absorption (OD600), MEDIA CAMHB, plate type 384well, CORNING #3640, time 18 hr
Staphylococcus aureus [2] = settings: ASSAY_TEST Inhibition of Bacterial Growth; detection method Absorption (OD600); MEDIA CAMHB; plate type 384well; NBS; CORNING #3640; time 18 hr
Description: (§1) Antibacterial activity against Staphylococcus aureus MRSA ATCC 43300 (CO-ADD:GP_020); MIC in CAMBH media, using NBS plates, by OD(600)

Escherichia coli [3] = settings: ASSAY_TEST Inhibition of Bacterial Growth; detection method Absorption (OD600); MEDIA CAMHB; plate type 384well; NBS; CORNING #3640; time 18 hr
Description: (§2) Antibacterial activity against Escherichia coli ATCC 25922 (CO-ADD:GN_001); MIC in CAMBH media using NBS plates, by OD(600)

Klebsiella pneumoniae [4] = settings: ASSAY_TEST Inhibition of Bacterial Growth; detection method Absorption (OD600); MEDIA CAMHB; plate type 384well; NBS; CORNING #3640; time 18 hr
Description: (§3) Antibacterial activity against Klebsiella pneumoniae MDR ATCC 70063 (CO-ADD:GN_003); MIC in CAMBH media using NBS plates, by OD(600)

Pseudomonas aeruginosa [5] = settings: ASSAY_TEST Inhibition of Bacterial Growth; detection method Absorption (OD600); MEDIA CAMHB; plate type 384well; NBS; CORNING #3640; time 18 hr
Description: (§4) Antibacterial activity against Pseudomonas aeruginosa ATCC 27853 (CO-ADD:GN_042); MIC in CAMBH media using NBS plates, by OD(600)

Acinetobacter baumannii [6] = settings: ASSAY_TEST Inhibition of Bacterial Growth; detection method Absorption (OD600); MEDIA CAMHB; plate type 384well; NBS; CORNING #3640; time 18 hr
Description: (§5) Antibacterial activity against Acinetobacter baumannii ATCC 19606 (CO-ADD:GN_034); MIC in CAMBH media using NBS plates, by OD600

Candida albicans [7] = settings: ASSAY_TEST Inhibition of Fungal Growth; detection method Absorption (OD530); plate type 384well; NBS; CORNING #3640
Description: (§6) Antifungal activity against Candida albicans ATCC 90028 (CO-ADD:FG_001); MIC in YNB media using NBS plates, by OD630

Staphylococcus aureus [8] = test: microbe, parasite or virus in culture; settings: ATCC 43300, 18 h, ASSAY_TEST Inhibition of Bacterial Growth, detection method Absorption (OD600), MEDIA CAMHB, plate type 384well, NBS, CORNING #3640
Description: as §1

Escherichia coli [9] = test: microbe, parasite or virus in culture; settings: ATCC 25922, 18 h, ASSAY_TEST Inhibition of Bacterial Growth, detection method Absorption (OD600), MEDIA CAMHB, plate type 384well, NBS, CORNING #3640
Description: as §2

Klebsiella pneumoniae [10] = test: microbe, parasite or virus in culture; settings: ATCC 700603, 18 h, ASSAY_TEST Inhibition of Bacterial Growth, detection method Absorption (OD600), MEDIA CAMHB, plate type 384well, NBS, CORNING #3640
Description: as §3

Pseudomonas aeruginosa [11] = test: microbe, parasite or virus in culture; settings: ATCC 27853, 18 h, ASSAY_TEST Inhibition of Bacterial Growth, detection method Absorption (OD600), MEDIA CAMHB, plate type 384well, NBS, CORNING #3640
Description: as §4

Acinetobacter baumannii [12] = test: microbe, parasite or virus in culture; settings: ATCC 19606, 18 h, ASSAY_TEST Inhibition of Bacterial Growth, detection method Absorption (OD600), MEDIA CAMHB, plate type 384well, NBS, CORNING #3640
Description: as §5

Candida albicans [13] = test: microbe, parasite or virus in culture; settings: ATCC 90028, ASSAY_TEST Inhibition of Fungal Growth, detection method Absorption (OD530), plate type 384well, NBS, CORNING #3640
Description: as §6

Description for Cryptococcus neoformans: Antifungal activity against Cryptococcus neoformans H99 ATCC 208821 (CO-ADD:FG_002); MIC in YNB media using NBS plates, by Resazurin OD(600-570)

CO[C@@]1(NC(=O)Cc2cccs2)C(=O)N2C(C(=O)O)=C(COC(N)=O)CS[C@@H]21 [CEFOXITIN]
> 20 µM: CC50 (HEK293) | MIC (Pseudomonas aeruginosa [1]) | MIC (Cryptococcus neoformans)
>20 µM: MIC (Staphylococcus aureus [2]) | MIC (Klebsiella pneumoniae [4]) | MIC (Pseudomonas aeruginosa [5]) | MIC (Acinetobacter baumannii [6]) | MIC (Candida albicans [7])
5 µM: MIC (Escherichia coli [3])

CC(C)/N=c1\cc2n(-c3ccc(Cl)cc3)c3ccccc3nc-2cc1Nc1ccc(Cl)cc1 [CLOFAZIMINE]
>20 µM: MIC (Escherichia coli [3]) | MIC (Klebsiella pneumoniae [4]) | MIC (Pseudomonas aeruginosa [5]) | MIC (Acinetobacter baumannii [6]) | MIC (Candida albicans [7])
20 µM: MIC (Staphylococcus aureus [2])
> 20 µM: CC50 (HEK293) | MIC (Pseudomonas aeruginosa [1]) | MIC (Cryptococcus neoformans)

O=c1[nH]cnc2c1ncn2[C@H]1CC[C@@H](CO)O1 [DIDANOSINE]
>20 µM: MIC (Staphylococcus aureus [2]) | MIC (Escherichia coli [3]) | MIC (Klebsiella pneumoniae [4]) | MIC (Pseudomonas aeruginosa [5]) | MIC (Acinetobacter baumannii [6]) | MIC (Candida albicans [7])
> 20 µM: CC50 (HEK293) | MIC (Pseudomonas aeruginosa [1]) | MIC (Cryptococcus neoformans)

OC(Cn1cncn1)(Cn1cncn1)c1ccc(F)cc1F [FLUCONAZOLE]
2.5 µM: MIC (Candida albicans [7])
>20 µM: MIC (Staphylococcus aureus [2]) | MIC (Escherichia coli [3]) | MIC (Klebsiella pneumoniae [4]) | MIC (Pseudomonas aeruginosa [5]) | MIC (Acinetobacter baumannii [6])
> 20 µM: CC50 (HEK293) | MIC (Pseudomonas aeruginosa [1]) | MIC (Cryptococcus neoformans)

Nc1nc(=O)[nH]cc1F [FLUCYTOSINE]
>20 µM: MIC (Staphylococcus aureus [2]) | MIC (Escherichia coli [3]) | MIC (Klebsiella pneumoniae [4]) | MIC (Pseudomonas aeruginosa [5]) | MIC (Acinetobacter baumannii [6])
1.25 µM: MIC (Candida albicans [7]) | MIC (Cryptococcus neoformans)
> 20 µM: CC50 (HEK293) | MIC (Pseudomonas aeruginosa [1])

Cc1ncc([N+](=O)[O-])n1CC(C)O (stereo not drawn) [SECNIDAZOLE]
> 20 µM: CC50 (HEK293) | MIC (Pseudomonas aeruginosa [1]) | MIC (Cryptococcus neoformans) | MIC (Staphylococcus aureus [8]) | MIC (Escherichia coli [9]) | MIC (Klebsiella pneumoniae [10]) | MIC (Pseudomonas aeruginosa [11]) | MIC (Acinetobacter baumannii [12]) | MIC (Candida albicans [13])

CC[C@H](CO)Nc1nc(NCc2ccccc2)c2ncn(C(C)C)c2n1 [SELICICLIB]
> 20 µM: CC50 (HEK293) | MIC (Pseudomonas aeruginosa [1]) | MIC (Cryptococcus neoformans) | MIC (Staphylococcus aureus [8]) | MIC (Escherichia coli [9]) | MIC (Klebsiella pneumoniae [10]) | MIC (Pseudomonas aeruginosa [11]) | MIC (Acinetobacter baumannii [12]) | MIC (Candida albicans [13])

N[C@@H]1CN(c2c(F)cc3c(=O)c(C(=O)O)cn([C@@H]4C[C@@H]4F)c3c2Cl)CC12CC2 [SITAFLOXACIN ANHYDROUS]
≤ 0.156 µM: MIC (Pseudomonas aeruginosa [1]) | MIC (Escherichia coli [9])
2.5 µM: MIC (Pseudomonas aeruginosa [11])
5 µM: MIC (Klebsiella pneumoniae [10]) | MIC (Acinetobacter baumannii [12])
> 20 µM: CC50 (HEK293) | MIC (Cryptococcus neoformans) | MIC (Candida albicans [13])
0.312 µM: MIC (Staphylococcus aureus [8])

CC(C)=CCC/C(C)=C/CNCCNC1C2CC3CC(C2)CC1C3 (stereo not drawn) [SQ109]
> 20 µM: MIC (Cryptococcus neoformans) | MIC (Staphylococcus aureus [8]) | MIC (Escherichia coli [9]) | MIC (Klebsiella pneumoniae [10]) | MIC (Pseudomonas aeruginosa [11]) | MIC (Acinetobacter baumannii [12]) | MIC (Candida albicans [13])
19.5 µM: CC50 (HEK293)
20 µM: MIC (Pseudomonas aeruginosa [1])

COc1cc(C)c2c(Oc3cccc(C(F)(F)F)c3)c(OC)cc(NC(C)CCCN)c2n1 (stereo not drawn) [TAFENOQUINE SUCCINATE]
10 µM: MIC (Staphylococcus aureus [8])
6.36 µM: CC50 (HEK293)
> 20 µM: MIC (Pseudomonas aeruginosa [1]) | MIC (Cryptococcus neoformans) | MIC (Escherichia coli [9]) | MIC (Klebsiella pneumoniae [10]) | MIC (Pseudomonas aeruginosa [11]) | MIC (Acinetobacter baumannii [12]) | MIC (Candida albicans [13])

O=C(NN1C(=O)[C@@H]2[C@@H]3C=C[C@@H]([C@H]4C[C@@H]34)[C@@H]2C1=O)c1ccc(C(F)(F)F)cc1 [TECOVIRIMAT]
> 20 µM: CC50 (HEK293) | MIC (Pseudomonas aeruginosa [1]) | MIC (Cryptococcus neoformans) | MIC (Staphylococcus aureus [8]) | MIC (Escherichia coli [9]) | MIC (Klebsiella pneumoniae [10]) | MIC (Pseudomonas aeruginosa [11]) | MIC (Acinetobacter baumannii [12]) | MIC (Candida albicans [13])

CCc1nc2ccc(Cl)cn2c1C(=O)NCc1ccc(N2CCC(c3ccc(OC(F)(F)F)cc3)CC2)cc1 [TELACEBEC]
> 20 µM: CC50 (HEK293) | MIC (Pseudomonas aeruginosa [1]) | MIC (Cryptococcus neoformans) | MIC (Staphylococcus aureus [8]) | MIC (Escherichia coli [9]) | MIC (Klebsiella pneumoniae [10]) | MIC (Pseudomonas aeruginosa [11]) | MIC (Acinetobacter baumannii [12]) | MIC (Candida albicans [13])
